As a reminder, the viscosity is the internal friction of a fluid under shear. The term speed of sound denotes the propagation velocity of pressure waves in the medium. As usually defined, the mass density is the mass of a sample divided by its volume.

± gives the expanded uncertainty stated by the source.

Among the data in the NIST ThermoML archive (doi:10.1016/j.jct.2012.01.022) are viscosity, speed of sound and mass density values, retold here.

For this data set the following is noted: 298.15 K, 101.33 kPa, Liquid; for viscosity: Capillary tube (Ostwald / Ubbelohde) method; for speed of sound: Sing-around technique in a fixed-path interferometer; for mass density: Vibrating tube method.

As for `CCCCCCCCO` [octan-1-ol], the viscosity was 7.143 ± 0.041 mPa·s, the speed of sound was 1347.5 ± 0.9 m/s and the mass density came out at 821.794 ± 0.14 kg/m3.
The matching figures for `NCCN` [ethane-1,2-diamine]: 1.405 ± 0.012 mPa·s, 1671.6 ± 1.3 m/s and 892.389 ± 0.23 kg/m3.
The matching figures for `CCCCCCO` [hexan-1-ol]: 4.439 ± 0.042 mPa·s, 1303.2 ± 1.7 m/s and 815.265 ± 0.41 kg/m3.
`CCCCCCCCCCO` [decan-1-ol]: the viscosity is listed as 11.19 ± 0.062 mPa·s, the speed of sound is given as 1379.8 ± 0.9 m/s and the mass density worked out at 826.47 ± 0.14 kg/m3.
